This assay concerns the target γ-secretase (Homo sapiens (Human), UniProt P49768). The assay is described as follows: Cellular γ-secretase assay (Aβ42 secretion, AlphaLisa). In kind it is cell-based. The conditions noted are these: inhibition of Aβ42 secretion; human neuroglioma H4 cells overexpressing human APP695 Swedish double mutation; 24 hr compound incubation. Here is the method: Human neuroglioma H4 cells overexpressing human APP695 with the Swedish double mutation (K595N/M596L) were plated at 30,000 cells/well/100 μl in 96-well plates in IMDM media containing 10% FCS, 0.2 mg/l Hygromycin B and incubated at 37° C., 5% CO2.
3-4 hr post plating, compounds are a diluted in media and 50 μl is added as […] concentrate to achieve the final concentration. Compound incubation is performed for 24 hr. Final doses typically range from 4 μM down to 0.0013 μM in half-log steps resulting in an eight point dose response curve. Appropriate controls using vehicle only and reference compound were applied to this assay. The final concentration of Me2SO was 0.4%.
After incubation at 37° C., 5% CO2, the supernatant was subjected to quantification of secreted Aβ42 by the means of an AlphaLisa assay kit (Human Amyloid beta 1-42 Kit: Cat # AL203C, Perkin Elmer). 20 μl of the cell culture supernatant was transferred to an assay plate. Then 10 μl of a mixture of the AlphaLisa coupled capture antibody and the biotinylated detection antibody was added and incubated for 3 hours at room temperature while softly shaking the assay plate. After a further addition of 20 μl of the Donor beads the assay plate was incubated for 30 min at room temperature and constant shaking without exposure to direct light. The assay plate was then read on a Paradigm AlphaLisa Reader using the build-in program with excitation at 680 nm and emission at […]. The measured signals were then used to calculate IC50 values for inhibition of Aβ42 secretion by nonlinear regression fit analysis using XLfit 5.3 software (IDBS).

pEC50: −log10 of the molar value.

For orientation: pEC50 means the negative decadic logarithm of the EC50, by convention in mol/L. Read a high pEC50 as a small EC50. Consider `CNc1nc(Nc2ccc(-n3cnc(C)n3)c(F)c2)nc2c1C(C)(C)CN2c1ccc(F)c(F)c1` [Example 9, 7-(3,4-Difluorophenyl)-N2-(3-fluoro-4-(3-methyl-1H-1,2,4-triazol-1-yl)phenyl)-N4,5,5-trimethyl-6,7-dihydro-5H-pyrrolo[2,3-d]pyrimidine-2,4-diamine], for which the pEC50 was 7.59.

In turn, `CNc1nc(Nc2cnc(-n3cnc(C)c3)c(OC)c2)nc2c1C(C)(C)CN2c1ccc(F)cc1` [Example 7, 7-(4-Fluorophenyl)-N2-(5-methoxy-6-(4-methyl-1H-imidazol-1-yl)pyridin-3-yl)-N4,5,5-trimethyl-6,7-dihydro-5H-pyrrolo[2,3-d]pyrimidine-2,4-diamine] had a negative-log EC50 (pEC50) of 8.30.

Regarding `CNc1nc(Nc2cnc(-n3cnc(C)c3)c(OC)c2)nc2c1C(C)CN2c1ccc(F)cc1` (stereo not drawn) [Example 40, 7-(4-Fluorophenyl)-N2-(5-methoxy-6-(4-methyl-1H-imidazol-1-yl)pyridin-3-yl)-N4,5-dimethyl-6,7-dihydro-5H-pyrrolo[2,3-d]pyrimidine-2,4-diamine], the negative logarithm of the EC50 (pEC50) is 8.22.

`CNc1nc(Nc2cnc(-n3cnc(C)c3)c(F)c2)nc2c1C(C)(C)CN2c1ccc(F)cc1F` [Example 26, 7-(2,4-Difluorophenyl)-N2-(5-fluoro-6-(4-methyl-1H-imidazol-1-yl)pyridin-3-yl)-N4,5,5-trimethyl-6,7-dihydro-5H-pyrrolo[2,3-d]pyrimidine-2,4-diamine] gave a negative logarithm of the EC50 (pEC50) of 8.22.

For `CNc1nc(Nc2cnc(-n3cnc(C)c3)c(OC)c2)nc2c1C(C)(C)CN2C12CC(C(F)(F)F)(C1)C2` [Example 22, N2-(5-Methoxy-6-(4-methyl-1H-imidazol-1-yl)pyridin-3-yl)-N4,5,5-trimethyl-7-(3-(trifluoromethyl)bicyclo[1.1.1]pentan-1-yl)-6,7-dihydro-5H-pyrrolo[2,3-d]pyrimidine-2,4-diamine], the negative-log EC50 (pEC50) was 7.52.

`CNc1nc(Nc2cnc(-n3cnc(C)c3)c(OC)c2)nc2c1C(C)(C)CN2c1ccc(F)cc1F` [Example 20, 7-(2,4-Difluorophenyl)-N2-(5-methoxy-6-(4-methyl-1H-imidazol-1-yl)pyridin-3-yl)-N4,5,5-trimethyl-6,7-dihydro-5H-pyrrolo[2,3-d]pyrimidine-2,4-diamine]: the pEC50 is 8.10.

In the case of `COc1cc(Nc2nc(NCCO)c3c(n2)N(c2ccc(F)cc2)CC3(C)C)ccc1-n1cnc(C)n1` [Example 28, 2-((7-(4-Fluorophenyl)-2-((3-methoxy-4-(3-methyl-1H-1,2,4-triazol-1-yl)phenyl)amino)-5,5-dimethyl-6,7-dihydro-5H-pyrrolo[2,3-d]pyrimidin-4-yl)amino)ethanol], the pEC50 was 8.10.

Turning to `CNc1nc(Nc2ccc(-n3cnc(C)n3)c(OC)c2)nc2c1CCN2c1ccc(F)cc1` [Example 32, 7-(4-Fluorophenyl)-N2-(3-methoxy-4-(3-methyl-1H-1,2,4-triazol-1-yl)phenyl)-N4-methyl-6,7-dihydro-5H-pyrrolo[2,3-d]pyrimidine-2,4-diamine], the pEC50 is 8.00.

Molecule `CNc1nc(Nc2cnc(-n3cnc(C)c3)c(F)c2)nc2c1C(C)(C)CN2c1cccc(F)c1F` [Example 42, 7-(2,3-Difluorophenyl)-N2-(5-fluoro-6-(4-methyl-1H-imidazol-1-yl)pyridin-3-yl)-N4,5,5-trimethyl-6,7-dihydro-5H-pyrrolo[2,3-d]pyrimidine-2,4-diamine] gave a pEC50 of 8.10.

The molecule `COc1cc(Nc2nc(NCCO)c3c(n2)N(c2ccc(F)cc2)CC3(C)C)cnc1-n1cnc(C)c1` [Example 29, 2-((7-(4-Fluorophenyl)-2-((5-methoxy-6-(4-methyl-1H-imidazol-1-yl)pyridin-3-yl)amino)-5,5-dimethyl-6,7-dihydro-5H-pyrrolo[2,3-d]pyrimidin-4-yl)amino)ethanol] showed a pEC50 of 8.22.

In the case of `CNc1nc(Nc2ccc(-n3cnc(C)c3)cc2)nc2c1C(C)(C)CN2c1ccc(F)cc1` [Example 12, 7-(4-Fluorophenyl)-N4,5,5-trimethyl-N2-(4-(4-methyl-1H-imidazol-1-yl)phenyl)-6,7-dihydro-5H-pyrrolo[2,3-d]pyrimidine-2,4-diamine], the pEC50 was 7.89.

On to `CNc1nc(Nc2cnc(-n3cnc(C)c3)c(OC)c2)nc2c1C(C)(C)CN2c1cccc(F)c1F` [Example 44, 7-(2,3-Difluorophenyl)-N2-(5-methoxy-6-(4-methyl-1H-imidazol-1-yl)pyridin-3-yl)-N4,5,5-trimethyl-6,7-dihydro-5H-pyrrolo[2,3-d]pyrimidine-2,4-diamine], for which the negative-log EC50 (pEC50) is 8.30.

In turn, `CNc1nc(Nc2ccc(-c3cnc(C)o3)c(F)c2)nc2c1C(C)(C)CN2c1ccc(F)cc1` [Example 16, N2-(3-Fluoro-4-(2-methyloxazol-5-yl)phenyl)-7-(4-fluorophenyl)-N4,5,5-trimethyl-6,7-dihydro-5H-pyrrolo[2,3-d]pyrimidine-2,4-diamine] had a pEC50 of 7.52.

Molecule `CNc1nc(Nc2ccc(-n3cnc(C)n3)c(OC(F)F)c2)nc2c1C(C)(C)CN2c1ccc(F)cc1` [Example 2, N2-(3-(Difluoromethoxy)-4-(3-methyl-1H-1,2,4-triazol-1-yl)phenyl)-7-(4-fluorophenyl)-N4,5,5-trimethyl-6,7-dihydro-5H-pyrrolo[2,3-d]pyrimidine-2,4-diamine] had a negative-log EC50 (pEC50) of 8.10.

Regarding `CNc1nc(Nc2ccc(-n3cnc(C)c3)c(F)c2)nc2c1C(C)(C)CN2c1ccc(F)cc1` [Example 34, N2-(3-Fluoro-4-(4-methyl-1H-imidazol-1-yl)phenyl)-7-(4-fluorophenyl)-N4,5,5-trimethyl-6,7-dihydro-5H-pyrrolo[2,3-d]pyrimidine-2,4-diamine], the pEC50 was 8.10.

As for `CNc1nc(Nc2ccc(-n3cnc(C)n3)c(OC)c2)nc2c1C(C)(C)CN2c1ccc(F)cc1F` [Example 19, 7-(2,4-Difluorophenyl)-N2-(3-methoxy-4-(3-methyl-1H-1,2,4-triazol-1-yl)phenyl)-N4,5,5-trimethyl-6,7-dihydro-5H-pyrrolo[2,3-d]pyrimidine-2,4-diamine], the negative logarithm of the EC50 (pEC50) is 8.10.

The molecule `COc1cc(Nc2nc(NCCO)c3c(n2)N(c2ccc(F)cc2)CC3(C)C)cnc1-n1cnc(Cl)c1` [Example 30, 2-((2-((6-(4-Chloro-1H-imidazol-1-yl)-5-methoxypyridin-3-yl)amino)-7-(4-fluorophenyl)-5,5-dimethyl-6,7-dihydro-5H-pyrrolo[2,3-d]pyrimidin-4-yl)amino)ethanol] gave a negative logarithm of the EC50 (pEC50) of 7.96.

Molecule `CNc1nc(Nc2ccc(-n3cnc(C)n3)c(OC)c2)nc2c1C(C)(C)CN2c1ccc(F)c(F)c1` [Example 8, 7-(3,4-Difluorophenyl)-N2-(3-methoxy-4-(3-methyl-1H-1,2,4-triazol-1-yl)phenyl)-N4,5,5-trimethyl-6,7-dihydro-5H-pyrrolo[2,3-d]pyrimidine-2,4-diamine] had a pEC50 of 8.30.

Consider `CNc1nc(Nc2ccc(-n3cnc(C)n3)c(OC)c2)nc2c1C(C)(C)CCN2c1ccc(F)cc1` [Example 35, 8-(4-Fluorophenyl)-N2-(3-methoxy-4-(3-methyl-1H-1,2,4-triazol-1-yl)phenyl)-N4,5,5-trimethyl-5,6,7,8-tetrahydropyrido[2,3-d]pyrimidine-2,4-diamine], for which the negative-log EC50 (pEC50) is 7.89.

With `CNc1nc(Nc2cnc(-n3cnc(C)c3)c(OC)c2)nc2c1C(C)(C)CN2C1CC(F)(F)C1` [Example 18, 7-(3,3-Difluorocyclobutyl)-N2-(5-methoxy-6-(4-methyl-1H-imidazol-1-yl)pyridin-3-yl)-N4,5,5-trimethyl-6,7-dihydro-5H-pyrrolo[2,3-d]pyrimidine-2,4-diamine], the negative logarithm of the EC50 (pEC50) was 7.85.

On to `CNc1nc(Nc2ccc(-n3cnc(C)n3)c(OC)c2)nc2c1C(C)(C)CN2c1cccc(F)c1F` [Example 41, 7-(2,3-Difluorophenyl)-N2-(3-methoxy-4-(3-methyl-1H-1,2,4-triazol-1-yl)phenyl)-N4,5,5-trimethyl-6,7-dihydro-5H-pyrrolo[2,3-d]pyrimidine-2,4-diamine], for which the pEC50 is 8.05.

As for `CNc1nc(Nc2ccc(-n3cnc(C)n3)c(F)c2)nc2c1C(C)(C)CN2c1ccc(F)cc1F` [Example 24, 7-(2,4-Difluorophenyl)-N2-(3-fluoro-4-(3-methyl-1H-1,2,4-triazol-1-yl)phenyl)-N4,5,5-trimethyl-6,7-dihydro-5H-pyrrolo[2,3-d]pyrimidine-2,4-diamine], the pEC50 is 7.66.

The molecule `CNc1nc(Nc2ccc(-n3cnc(C)c3)c(F)c2)nc2c1[C@H](C)CN2c1ccc(F)cc1` (single isomer, unassigned) [Example 46p, (S)- or (R)—N2-(3-Fluoro-4-(4-methyl-1H-imidazol-1-yl)phenyl)-7-(4-fluorophenyl)-N4,5-dimethyl-6,7-dihydro-5H-pyrrolo[2,3-d]pyrimidine-2,4-diamine] had a pEC50 of 8.30.

On to `CNc1nc(Nc2cnc(-n3cnc(C)c3)c(F)c2)nc2c1C(C)(C)CN2c1ccc(F)cc1` [Example 25, N2-(5-Fluoro-6-(4-methyl-1H-imidazol-1-yl)pyridin-3-yl)-7-(4-fluorophenyl)-N4,5,5-trimethyl-6,7-dihydro-5H-pyrrolo[2,3-d]pyrimidine-2,4-diamine], for which the pEC50 is 8.10.

Values taken from patent US10669276B2, “Fused pyrimidine derivatives” (Hoffmann-La Roche Inc., priority 2016, dated 2020).
